Literature values in article PMC12530842, “Potent, Selective, and Drug‐Like G Protein‐Coupled Receptor Kinase 5 and 6 Inhibitors: Design, Synthesis, and X‐Ray Structural Studies” (Chemmedchem, 2025).

Target: T1, GRK2 (Homo sapiens, UniProt P25098)
T1 construct: made in house
T1 sequence (P25098 1-689): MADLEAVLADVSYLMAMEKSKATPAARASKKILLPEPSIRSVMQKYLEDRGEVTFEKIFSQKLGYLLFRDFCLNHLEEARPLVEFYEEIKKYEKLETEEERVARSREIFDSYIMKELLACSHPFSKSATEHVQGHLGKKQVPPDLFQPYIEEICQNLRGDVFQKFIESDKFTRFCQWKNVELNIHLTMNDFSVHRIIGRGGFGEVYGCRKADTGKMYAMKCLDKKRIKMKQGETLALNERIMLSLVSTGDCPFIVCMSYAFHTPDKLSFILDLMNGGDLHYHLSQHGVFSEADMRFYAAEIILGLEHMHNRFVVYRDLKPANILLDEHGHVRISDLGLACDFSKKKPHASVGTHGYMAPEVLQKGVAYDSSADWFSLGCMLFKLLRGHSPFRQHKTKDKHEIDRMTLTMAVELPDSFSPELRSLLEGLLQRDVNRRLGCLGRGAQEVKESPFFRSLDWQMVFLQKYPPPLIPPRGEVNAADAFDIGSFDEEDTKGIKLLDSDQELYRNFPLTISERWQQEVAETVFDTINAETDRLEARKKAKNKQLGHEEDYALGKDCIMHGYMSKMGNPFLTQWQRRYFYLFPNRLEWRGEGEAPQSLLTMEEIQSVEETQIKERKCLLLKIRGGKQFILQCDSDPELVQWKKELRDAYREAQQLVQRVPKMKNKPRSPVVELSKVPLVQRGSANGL
Settings: earlier work; cited from earlier work

SMILES: Cc1[nH]c(/C=C2\C(=O)Nc3ccc(C(=O)N[C@H](C)c4ccc(F)cc4)cc32)c(C)c1NC(=O)CCl [compound 1]
- IC50: 1200 nM
